Test system: Pythium ultimum
Assay: Pythium ultimum / liquid culture (seedling damping off)
Type: cell-based
Details: Globisporangium ultimum, growth inhibition photometrically 2-3 days after application, compared to untreated control
Procedure: 15. Pythium ultimum/Liquid Culture (Seedling Damping Off) Mycelia fragments and oospores of a newly grown liquid culture of the fungus are directly mixed into nutrient broth (PDB potato dextrose broth). After placing a (DMSO) solution of test compound into a microtiter plate (96-well format), the nutrient broth containing the fungal mycelia/spore mixture is added. The test plates are incubated at 24° C. and the inhibition of growth is determined photometrically 2-3 days after application.

| Compound | inhibition of growth at 20 ppm |
| --- | --- |
| COc1c(C(=O)NCc2ccccn2)ccc2c1B(O)OC2 [Compound 7, 1-hydroxy-7-methoxy-N-(2-pyridylmethyl)-3H-2,1-benzoxaborole-6-carboxamide] | ≥ 80% |
| COc1c(C(=O)N(C)C)ccc2c1B(O)OC2 [Compound 11, 1-hydroxy-7-methoxy-N,N-dimethyl-3H-2,1-benzoxaborole-6-carboxamide] | ≥ 80% |
| CN(C)C(=O)c1ccc2c(c1Cl)B(O)OC2 [Compound 13, 7-chloro-1-hydroxy-N,N-dimethyl-3H-2,1-benzoxaborole-6-carboxamide] | ≥ 80% |
| CCOC(=O)N1CCC(NC(=O)c2ccc3c(c2OC)B(O)OC3)CC1 [Compound 18, ethyl 4-[(1-hydroxy-7-methoxy-3H-2,1-benzoxaborole-6-carbonyl)amino]piperidine-1-carboxylate] | ≥ 80% |
| COc1c(C(=O)NC(=O)N(C)C)ccc2c1B(O)OC2 [Compound 21, N-(dimethylcarbamoyl)-1-hydroxy-7-methoxy-3H-2,1-benzoxaborole-6-carboxamide] | ≥ 80% |
| COc1c(C(=O)Nc2cc(C)cc(C)n2)ccc2c1B(O)OC2 [Compound 22, N-(4,6-dimethyl-2-pyridyl)-1-hydroxy-7-methoxy-3H-2,1-benzoxaborole-6-carboxamide] | ≥ 80% |
| COC(=O)C1CCN(C(=O)c2ccc3c(c2OC)B(O)OC3)CC1 [Compound 24, methyl 1-(1-hydroxy-7-methoxy-3H-2,1-benzoxaborole-6-carbonyl)piperidine-4-carboxylate] | ≥ 80% |
| COCCN(C)C(=O)c1ccc2c(c1OC)B(O)OC2 [Compound 27, 1-hydroxy-7-methoxy-N-(2-methoxyethyl)-N-methyl-3H-2,1-benzoxaborole-6-carboxamide] | ≥ 80% |
| COc1c(C(=O)N(C)c2nc(C)c(S(N)(=O)=O)s2)ccc2c1B(O)OC2 [Compound 28, 1-hydroxy-7-methoxy-N-methyl-N-(4-methyl-5-sulfamoyl-thiazol-2-yl)-3H-2,1-benzoxaborole-6-carboxamide] | ≥ 80% |
| COc1c(C(=O)N(C)c2ccccn2)ccc2c1B(O)OC2 [Compound 30, 1-hydroxy-7-methoxy-N-methyl-N-(2-pyridyl)-3H-2,1-benzoxaborole-6-carboxamide] | ≥ 80% |
| COc1c(C(=O)NCC(C)C)ccc2c1B(O)OC2 [Compound 36, 1-hydroxy-N-isobutyl-7-methoxy-3H-2,1-benzoxaborole-6-carboxamide] | ≥ 80% |
| CCOC(=O)C1(NC(=O)c2ccc3c(c2OC)B(O)OC3)CC1 [Compound 37, ethyl 1-[(1-hydroxy-7-methoxy-3H-2,1-benzoxaborole-6-carbonyl)amino]cyclopropanecarboxylate] | ≥ 80% |
| COc1c(C(=O)Nc2c(C(C)C)ccnc2C(C)C)ccc2c1B(O)OC2 [Compound 38, N-(2,4-diisopropyl-3-pyridyl)-1-hydroxy-7-methoxy-3H-2,1-benzoxaborole-6-carboxamide] | ≥ 80% |
| COc1c(C(=O)N(C)c2cc(Cl)cnc2Cl)ccc2c1B(O)OC2 [Compound 39, N-(2,5-dichloro-3-pyridyl)-1-hydroxy-7-methoxy-N-methyl-3H-2,1-benzoxaborole-6-carboxamide] | ≥ 80% |
| CCSc1nc(NC(=O)c2ccc3c(c2OC)B(O)OC3)nn1C [Compound 40, N-(5-ethylsulfanyl-1-methyl-1,2,4-triazol-3-yl)-1-hydroxy-7-methoxy-3H-2,1-benzoxaborole-6-carboxamide] | ≥ 80% |
| COc1c(C(=O)Nc2ccnc(C)c2)ccc2c1B(O)OC2 [Compound 42, 1-hydroxy-7-methoxy-N-(2-methyl-4-pyridyl)-3H-2,1-benzoxaborole-6-carboxamide] | ≥ 80% |
| COc1c(C(=O)Nc2nnc(C)[nH]2)ccc2c1B(O)OC2 [Compound 43, 1-hydroxy-7-methoxy-N-(5-methyl-4H-1,2,4-triazol-3-yl)-3H-2,1-benzoxaborole-6-carboxamide] | ≥ 80% |
| CCC(NC(=O)c1ccc2c(c1OC)B(O)OC2)C(=O)OC (centres unmarked) [Compound 44, methyl 2-[(1-hydroxy-7-methoxy-3H-2,1-benzoxaborole-6-carbonyl)amino]butanoate] | ≥ 80% |
| COc1c(C(=O)NC(=S)N(C)Cc2cccnc2)ccc2c1B(O)OC2 [Compound 47, 1-hydroxy-7-methoxy-N-[methyl(3-pyridylmethyl)carbamothioyl]-3H-2,1-benzoxaborole-6-carboxamide] | ≥ 80% |
| CCN(Cc1cccnc1)C(=O)c1ccc2c(c1OC)B(O)OC2 [Compound 48, N-ethyl-1-hydroxy-7-methoxy-N-(3-pyridylmethyl)-3H-2,1-benzoxaborole-6-carboxamide] | ≥ 80% |
| COc1c(C(=O)N(C)c2ncn[nH]2)ccc2c1B(O)OC2 [Compound 50, 1-hydroxy-7-methoxy-N-methyl-N-(1H-1,2,4-triazol-5-yl)-3H-2,1-benzoxaborole-6-carboxamide] | ≥ 80% |

| Compound | inhibition of growth at 20 ppm |
| --- | --- |
| COc1n[nH]c(NC(=O)c2ccc3c(c2OC)B(O)OC3)n1 [Compound 51, 1-hydroxy-7-methoxy-N-(3-methoxy-1H-1,2,4-triazol-5-yl)-3H-2,1-benzoxaborole-6-carboxamide] | ≥ 80% |
| COc1c(C(=O)NCCOc2ccccc2)ccc2c1B(O)OC2 [Compound 56, 1-hydroxy-7-methoxy-N-(2-phenoxyethyl)-3H-2,1-benzoxaborole-6-carboxamide] | ≥ 80% |
| COc1c(C(=O)NCc2ccc(Cl)nc2)ccc2c1B(O)OC2 [Compound 59, N-[(6-chloro-3-pyridyl)methyl]-1-hydroxy-7-methoxy-3H-2,1-benzoxaborole-6-carboxamide] | ≥ 80% |
| COc1c(C(=O)NC(C)(C)C)ccc2c1B(O)OC2 [Compound 60, N-tert-butyl-1-hydroxy-7-methoxy-3H-2,1-benzoxaborole-6-carboxamide] | ≥ 80% |
| COc1c(C(=O)NCC2CC(F)(F)C2(F)F)ccc2c1B(O)OC2 (centres unmarked) [Compound 62, 1-hydroxy-7-methoxy-N-[(2,2,3,3-tetrafluorocyclobutyl)methyl]-3H-2,1-benzoxaborole-6-carboxamide] | ≥ 80% |
| COC(=O)c1cc(NC(=O)c2ccc3c(c2OC)B(O)OC3)cn1C [Compound 67, methyl 4-[(1-hydroxy-7-methoxy-3H-2,1-benzoxaborole-6-carbonyl)amino]-1-methyl-pyrrole-2-carboxylate] | ≥ 80% |
| COc1c(C(=O)NCc2ncc(C(F)(F)F)cc2Cl)ccc2c1B(O)OC2 [Compound 68, N-[[3-chloro-5-(trifluoromethyl)-2-pyridyl]methyl]-1-hydroxy-7-methoxy-3H-2,1-benzoxaborole-6-carboxamide] | ≥ 80% |
| CCC1COC(CNC(=O)c2ccc3c(c2OC)B(O)OC3)O1 (centres unmarked) [Compound 69, N-[(4-ethyl-1,3-dioxolan-2-yl)methyl]-1-hydroxy-7-methoxy-3H-2,1-benzoxaborole-6-carboxamide] | ≥ 80% |
| COc1c(C(=O)NCc2ccc(C)o2)ccc2c1B(O)OC2 [Compound 70, 1-hydroxy-7-methoxy-N-[(5-methyl-2-furyl)methyl]-3H-2,1-benzoxaborole-6-carboxamide] | ≥ 80% |
| COc1c(C(=O)n2nc(N)cc2C)ccc2c1B(O)OC2 [Compound 71, (3-amino-5-methyl-pyrazol-1-yl)-(1-hydroxy-7-methoxy-3H-2,1-benzoxaborol-6-yl)methanone] | ≥ 80% |
| COc1c(C(=O)N2CCCC2CO)ccc2c1B(O)OC2 (centres unmarked) [Compound 72, (1-hydroxy-7-methoxy-3H-2,1-benzoxaborol-6-yl)-[2-(hydroxymethyl)pyrrolidin-1-yl]methanone] | ≥ 80% |
| COc1c(C(=O)OCn2cncn2)ccc2c1B(O)OC2 [Compound 73, 1,2,4-triazol-1-ylmethyl 1-hydroxy-7-methoxy-3H-2,1-benzoxaborole-6-carboxylate] | ≥ 80% |
| COc1c(C(=O)OCC(C)(F)F)ccc2c1B(O)OC2 [Compound 74, 2,2-difluoropropyl 1-hydroxy-7-methoxy-3H-2,1-benzoxaborole-6-carboxylate] | ≥ 80% |
| COc1c(C(=O)OCC(C)=O)ccc2c1B(O)OC2 [Compound 76, acetonyl 1-hydroxy-7-methoxy-3H-2,1-benzoxaborole-6-carboxylate] | ≥ 80% |
| COc1cc(COC(=O)c2ccc3c(c2OC)B(O)OC3)nc(OC)n1 [Compound 78, (2,6-dimethoxypyrimidin-4-yl)methyl 1-hydroxy-7-methoxy-3H-2,1-benzoxaborole-6-carboxylate] | ≥ 80% |
| COc1c(C(=O)OCc2ccncc2)ccc2c1B(O)OC2 [Compound 106, 4-pyridylmethyl 1-hydroxy-7-methoxy-3H-2,1-benzoxaborole-6-carboxylate] | ≥ 80% |
| COC(=O)C[C@H](OC(=O)c1ccc2c(c1OC)B(O)OC2)C(=O)OC [Compound 108, dimethyl (2S)-2-(1-hydroxy-7-methoxy-3H-2,1-benzoxaborole-6-carbonyl)oxybutanedioate] | ≥ 80% |
| COc1c(C(=O)OCCN(C)C(=O)OC(C)(C)C)ccc2c1B(O)OC2 [Compound 112, 2-[tert-butoxycarbonyl(methyl)amino]ethyl 1-hydroxy-7-methoxy-3H-2,1-benzoxaborole-6-carboxylate] | ≥ 80% |
| COc1c(C(=O)OCC2COC(=O)O2)ccc2c1B(O)OC2 (centres unmarked) [Compound 113, (2-oxo-1,3-dioxolan-4-yl)methyl 1-hydroxy-7-methoxy-3H-2,1-benzoxaborole-6-carboxylate] | ≥ 80% |
| COc1c(C(=O)OC2COCOC2)ccc2c1B(O)OC2 [Compound 122, 1,3-dioxan-5-yl 1-hydroxy-7-methoxy-3H-2,1-benzoxaborole-6-carboxylate] | ≥ 80% |
